Like-named read-outs stand apart in the source and are kept apart here.
Legend:
human CB2 receptor = biological target: T1, human CB2 receptor (Homo sapiens, UniProt P34972); assay: Human CB2 receptor binding inhibition test ([3H]CP-55,940, CHO membrane fractions)
T1 construct: expressed in transfected cells
Text: Human CB2 Receptor Binding Inhibition Test
First, cDNA sequence (Munro et al., Nature, 1993, 365, 61-65) encoding a human CB2 receptor was inserted in the forward direction in an animal-cell expression vector, pTARGET Vector (manufactured by Promega) at a region downstream of a CMV promoter. Host cells CHO-DHFR(−) were transfected with the obtained expression vector with the aid of Lipofectamine (manufactured by Invitrogen) to obtain cells capable of stably expressing the CB2 receptor.
After the filtrate was washed with an assay buffer containing 0.1% bovine serum albumin, the radioactivity on the glass filter was measured by a liquid scintillation counter. Nonspecific binding was measured in the presence of 2.0 μM CP-55,940 (manufactured by Tocris). 50% inhibitory concentration (IC50 value) of the test compound for the specific binding was obtained.

[1] = [3H]CP-55,940, membrane fractions of CHO cells stably expressing human CB2 receptor, 25° C., 2 hours, read-out: CB2 IC50 (Inhibition of binding to human CB2 receptor)

T1 sequence (P34972 whole entry): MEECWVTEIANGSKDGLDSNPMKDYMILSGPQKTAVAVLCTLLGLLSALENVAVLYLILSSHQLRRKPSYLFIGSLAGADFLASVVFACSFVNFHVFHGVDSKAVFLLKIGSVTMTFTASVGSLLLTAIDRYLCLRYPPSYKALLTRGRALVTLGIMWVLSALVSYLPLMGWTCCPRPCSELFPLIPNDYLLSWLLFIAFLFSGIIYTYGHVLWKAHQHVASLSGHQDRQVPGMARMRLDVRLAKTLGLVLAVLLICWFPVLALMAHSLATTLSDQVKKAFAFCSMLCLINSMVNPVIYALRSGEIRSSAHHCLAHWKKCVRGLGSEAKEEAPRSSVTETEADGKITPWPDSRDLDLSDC

SMILES	melting point [°C]	IC50 (human CB2 receptor; [1]) [nM]	IC50 (human CB2 receptor) [nM]
Cc1c(C(C)(C)C)s/c(=N\C(=O)C2C[C@H]2c2ccccc2)n1CC1CC1 (mixture of isomers) [compound 337]	110 to 112	2.8	–
Cc1s/c(=N\C(=O)CC(C)CC(C)(C)C)n(CC2CC2)c1C (racemic) [compound 99]	42 to 43	6.5	–
CCOCCn1c(C)c(C(C)(C)C)s/c1=N\C(=O)c1cccc(C(F)(F)F)c1 [Compound No. 352, 5-t-butyl-3-(2-ethoxyethyl)-4-methyl-2-(3-trifluoromethylbenzoyl)imino-2,3-dihydrothiazole]	91 to 92	2.3	–
Cn1c(C(C)(C)C)c/c(=N\C(=O)c2cccc(C(F)(F)F)c2Cl)n1CC1CC1 [Compound No. 476, N-(5-t-butyl-2-cyclopropylmethyl-1,2-dihydro-1-methylpyrazol-3-ylidene)-2-chloro-3-(trifluoromethyl)benzamide]	–	–	3.9
O=C(/N=c1\ccccn1CC1CCC1)c1cccc(C(F)(F)F)c1F [compound 12]	93 to 94	13.3	–
Cc1ccn(CC2CC2)/c(=N/C(=O)c2cccc(C(F)(F)F)c2F)c1 [compound 23]	81 to 83	8.9	–
Cc1cc/c(=N\C(=O)c2cccc(C(F)(F)F)c2F)n(CC2CC2)c1 [compound 24]	118 to 120	7.5	–
Cc1ccc/c(=N\C(=O)c2cccc(C(F)(F)F)c2F)n1CC1CC1 [compound 25]	96 to 98	17.4	–
O=C(/N=c1\cc(C(F)(F)F)ccn1CC1CC1)c1cccc(C(F)(F)F)c1F [compound 29]	85 to 86	8.6	–
O=C(/N=c1\cc(Cl)ccn1CC1CC1)c1cccc(C(F)(F)F)c1F [compound 33]	91 to 93	8.2	–
O=C(/N=c1\ccc(Cl)cn1CC1CC1)c1cccc(C(F)(F)F)c1F [compound 34]	117 to 119	6.6	–
O=C(/N=c1\cccc(Cl)n1CC1CC1)c1cccc(C(F)(F)F)c1F [compound 35]	81 to 83	3.4	–
O=C(/N=c1\ccc(F)cn1CC1CC1)c1cccc(C(F)(F)F)c1F [compound 37]	89 to 91	11.3	–
Cc1c(Br)cc/c(=N\C(=O)c2cccc(C(F)(F)F)c2F)n1CC1CC1 [compound 41]	135 to 137	1.4	–
Cc1c/c(=N\C(=O)c2cccc(C(F)(F)F)c2F)n(CC2CC2)c(C)c1Br [compound 46]	121 to 122	1.2	–
CC(C)(C)c1c/c(=N\C(=O)c2cc(C(F)(F)F)ccc2F)n(CC2CC2)o1 [compound 54]	–	18.7	–
CC(C)(C)c1c/c(=N\C(=O)c2cccc(C(F)(F)F)c2)n(CC2CC2)s1 [compound 57]	–	3.8	–
CC(C)(C)c1c/c(=N\C(=O)c2cc(C(F)(F)F)ccc2F)n(CC2CC2)s1 [compound 58]	63 to 65	1.8	–
Cc1cs/c(=N\C(=O)c2cccc(C(F)(F)F)c2F)n1CC1CC1 [compound 63]	109 to 111	4.9	–
Cc1cn(CC2CC2)/c(=N/C(=O)c2cccc(C(F)(F)F)c2F)s1 [compound 67]	129 to 130	3	–
CCn1c(C)c(C)s/c1=N\C(=O)c1cccc(C(F)(F)F)c1F [compound 70]	198 to 200	14.9	–
CCc1ccccc1C(=O)/N=c1\sc(C)c(C)n1CC1CC1 [compound 71]	150 to 152	5.9	–

SMILES	melting point [°C]	IC50 (human CB2 receptor; [1]) [nM]	IC50 (human CB2 receptor) [nM]
Cc1s/c(=N\C(=O)c2ccccc2C(F)(F)F)n(CC2CC2)c1C [compound 74]	125 to 127	4.6	–
Cc1s/c(=N\C(=O)c2ccccc2Br)n(CC2CC2)c1C [compound 76]	114 to 116	14.4	–
Cc1s/c(=N\C(=O)c2cccc(Br)c2)n(CC2CC2)c1C [compound 77]	159 to 160	19.3	–
Cc1s/c(=N\C(=O)c2ccccc2I)n(CC2CC2)c1C [compound 78]	130 to 132	9.8	–
Cc1s/c(=N\C(=O)c2cccc(Cl)c2F)n(CC2CC2)c1C [compound 79]	109 to 111	8.4	–
Cc1s/c(=N\C(=O)c2cc(F)ccc2Cl)n(CC2CC2)c1C [compound 80]	139 to 140	17.9	–
Cc1s/c(=N\C(=O)c2cc(F)c(F)cc2Cl)n(CC2CC2)c1C [compound 85]	161 to 163	18.9	–
Cc1s/c(=N\C(=O)c2cc(F)c(Cl)cc2Cl)n(CC2CC2)c1C [compound 86]	59 to 60	6.5	–
COc1ccc(OC)c(C(=O)/N=c2\sc(C)c(C)n2CC2CC2)c1 [compound 88]	124 to 126	17.8	–
Cc1ccc(F)cc1C(=O)/N=c1\sc(C)c(C)n1CC1CC1 [compound 89]	82 to 84	9.8	–
Cc1cc(Cl)ccc1C(=O)/N=c1\sc(C)c(C)n1CC1CC1 [compound 90]	124 to 125	6.5	–
Cc1ccc(C(=O)/N=c2\sc(C)c(C)n2CC2CC2)c(Br)c1 [compound 91]	90 to 92	7.9	–
Cc1s/c(=N\C(=O)c2cc(C(F)(F)F)ccc2F)n(CC2CC2)c1C [compound 92]	122 to 123	3.9	–
Cc1s/c(=N\C(=O)c2cc(F)ccc2C(F)(F)F)n(CC2CC2)c1C [compound 93]	131 to 133	17.6	–
Cc1s/c(=N\C(=O)c2c(F)cccc2C(F)(F)F)n(CC2CC2)c1C [compound 94]	111 to 113	2.9	–
COc1ccc(F)cc1C(=O)/N=c1\sc(C)c(C)n1CC1CC1 [compound 96]	107 to 109	7.7	–
COc1ccc(Cl)cc1C(=O)/N=c1\sc(C)c(C)n1CC1CC1 [compound 97]	121 to 123	3.3	–
Cc1s/c(=N\C(=O)CC2CCCC2)n(CC2CC2)c1C [compound 100]	108 to 109	7	–
CCc1ccccc1C(=O)/N=c1\sc(C(C)(C)C)c(C)n1CC [compound 150]	–	15	–
CCn1c(C)c(C(C)(C)C)s/c1=N\C(=O)c1ccc(Cl)cc1OC [compound 168]	–	5.4	–
Cc1c(C(C)(C)C)s/c(=N\C(=O)c2cccc(Cl)c2)n1CC1CC1 [compound 187]	–	17	–
COc1ccccc1C(=O)/N=c1\sc(C(C)(C)C)c(C)n1CC1CC1 [compound 195]	–	3.2	–

SMILES	melting point [°C]	IC50 (human CB2 receptor; [1]) [nM]	IC50 (human CB2 receptor) [nM]
Cc1c(C(C)(C)C)s/c(=N\C(=O)c2ccccc2OC(F)(F)F)n1CC1CC1 [compound 197]	–	2	–
Cc1c(C(C)(C)C)s/c(=N\C(=O)c2cccc(C#N)c2)n1CC1CC1 [compound 211]	–	12	–
Cc1c(C(C)(C)C)s/c(=N\C(=O)c2cccc(F)c2F)n1CC1CC1 [compound 222]	–	11.3	–
Cc1c(C(C)(C)C)s/c(=N\C(=O)c2cccc(Cl)c2F)n1CC1CC1 [compound 225]	–	3.9	–
Cc1c(C(C)(C)C)s/c(=N\C(=O)c2cccc(C(F)(F)F)c2F)n1CC1CC1 [compound 250]	–	1.1	–
Cc1c(C(C)(C)C)s/c(=N\C(=O)c2ccc(F)cc2C(F)(F)F)n1CC1CC1 [compound 255]	–	0.6	–
Cc1c(C(C)C)o/c(=N\C(=O)c2cccc(C(F)(F)F)c2F)n1CC1CC1 [compound 369]	–	1.4	–
CCCCn1c(C)c(C(C)(C)C)s/c1=N\S(=O)(=O)c1cccc2ccccc12 [compound 387]	–	13.7	–
Cc1c(C(C)(C)C)s/c(=N\S(=O)(=O)c2cccc(Cl)c2Cl)n1CC1CC1 [compound 399]	–	6.8	–
Cc1c(C(C)(C)C)s/c(=N\S(=O)(=O)c2c(Cl)cccc2Cl)n1CC1CC1 [compound 402]	–	15.4	–
Cc1cc(C)c(S(=O)(=O)/N=c2\sc(C(C)(C)C)c(C)n2CC2CC2)c(C)c1 [compound 410]	–	7.1	–
CC#CCn1c(C)c(C(C)(C)C)s/c1=N\S(=O)(=O)c1cccc2ccccc12 [compound 427]	–	5.9	–
Cc1c(C(=O)/N=c2\cc(C(C)(C)C)n(C)n2CC2CC2)cccc1C(F)(F)F [compound 470]	–	10.6	–
Cn1c(C(C)(C)C)c/c(=N\C(=O)c2cccc(C(F)(F)F)c2F)n1CC1CCC1 [compound 482, N-(5-t-butyl-2-cyclobutylmethyl-1,2-dihydro-1-methylpyrazol-3-ylidene)-2-fluoro-3-(trifluoromethyl)benzamide]	–	1.2	–
Cn1c(C(C)(C)C)c/c(=N\C(=O)c2cccc(C(F)(F)F)c2F)n1CC1CCCC1 [compound 485]	–	1.1	–
CCOCCn1/c(=N/C(=O)c2cccc(C(F)(F)F)c2F)cc(C(C)(C)C)n1C [compound 488]	–	4	–
CC(C)OCCn1/c(=N/C(=O)c2cccc(C(F)(F)F)c2F)cc(C(C)(C)C)n1C [compound 493]	–	1.9	–
CCn1c(C(C)(C)C)c/c(=N\C(=O)c2cccc(C(F)(F)F)c2F)n1CC1CC1 [compound 495]	–	6.3	–
CC(C)(C)c1nn(CC2CC2)/c(=N/C(=O)c2cccc(C(F)(F)F)c2F)s1 [compound 504]	–	15.4	–
CCOc1ccncc1C(=O)/N=c1\sc(C(C)(C)C)nn1CC1CC1 [compound 513]	–	16.9	–
